Results as given in patent publication US9879050B2, “Substituted urea depsipeptide analogs as activators of the CLPP endopeptidase” (priority 2013, dated 2018).
In brackets after ≈: the same amount, converted by molar mass.

What was measured:
Sa-ClpP [1] = biological target: T1, Sa-ClpP (Staphylococcus aureus, UniProt Q2G036); experiment: ClpP activation, EnzCheck Protease Assay with Bodipy-FL casein (second described method); format: biochemical, S. aureus; settings: read-out: ClpP Activation EC50 (converted)
T1 construct: made in house; host or cells: E. coli BL21 (DE3)
How it was run: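 Sa-ClpP (2 μM in master mix) with Bodipy-FL casein (2 μM in master mix) in Tris-HCl pH 8.0, 0.01% Triton X-100, compounds in 2% DMSO, triplicate. Fluorescence (ex 485/em 520 nm) followed 30 min; degradation slopes normalized to ADEP4 and DMSO controls, EC50 and % activation by four-parameter fit.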

Sa-ClpP [2] = biological target: T1, Sa-ClpP; experiment: ADEP displacement fluorescence polarization assay; format: binding, S. aureus; settings: 1 μM Sa-ClpP, 50 nM FP probe ADEP 2591; read-out: ADEP Displacement IC50
How it was run: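 Displacement of TAMRA-labelled ADEP 2591 probe (50 nM) from 1 μM Sa-ClpP, pre-equilibrated 1 h in Tris·HCl pH 8.0 with 2% DMSO, then 120 min at room temperature with compound, triplicate. Polarization (mP) read ex 530/em 579 nm, normalised to 20 μM ADEP 2378 and DMSO controls; four-parameter fit.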

S. pyogenes ATCC 700294 = experiment: Minimal inhibitory concentration, microbroth dilution; format: cell-based; settings: Streptococcus pyogenes, ATCC700294, read-out: Minimal Inhibitory Concentration S. pyogenes ATCC 700294
How it was run: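 Twofold serial dilutions in broth per CLSI M7-A7 microbroth dilution, incubated aerobically overnight at 37° C. MIC read visually as lowest concentration preventing bacterial growth.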

B. subtilis ATCC 23857 = experiment: as above; format: cell-based; settings: Bacillus subtilis, ATCC23857, read-out: Minimal Inhibitory Concentration B. subtilis ATCC 23857
How it was run: (§1)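 Susceptibility testing used the CLSI dilution standard, with bacteria at ~10^5 cfu/mL exposed to a two-fold compound series beginning at 200 μM final. The endpoint is the lowest concentration showing no growth after overnight incubation (37 °C, aerobic).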

S. aureus ATCC 29213 = experiment: as above; format: cell-based; settings: Staphylococcus aureus, ATCC29213, read-out: Minimal Inhibitory Concentration S. aureus ATCC 29213
How it was run: as §1

T1 sequence (Q2G036 whole entry): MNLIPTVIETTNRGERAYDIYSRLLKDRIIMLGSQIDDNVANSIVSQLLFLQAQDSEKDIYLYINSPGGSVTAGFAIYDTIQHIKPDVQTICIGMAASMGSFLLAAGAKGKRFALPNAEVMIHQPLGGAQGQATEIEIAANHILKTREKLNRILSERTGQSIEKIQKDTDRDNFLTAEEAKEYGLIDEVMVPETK

C[C@@H]1C[C@H]2C(=O)OC[C@H](NC(=O)[C@H](Cc3ccccc3)NC(=O)Nc3ccc(Cl)cc3)C(=O)N3CCC[C@H]3C(=O)N3CCCC[C@H]3C(=O)N[C@@H](C)C(=O)N2C1 [Compound 3, (S)-2-(3-(4-Chlorophenyl)Ureido)-N-((2R,6S,8aS,14aS,20S,23aS)-2,6-Dimethyl-5,8,14,19,23-Pentaoxooctadecahydro-1H,5H,14H,19H-Pyrido[2,1-I]Dipyrrolo[2,1-C:2′,1′-L][1]Oxa[4,7,10,13]Tetraazacyclohexadecin-20-Yl)-3-Phenylpropanamide]
EC50 (Sa-ClpP [1]): 1.5 µM | IC50 (Sa-ClpP [2]): 9.25 ± 0.5 µM | MIC (S. pyogenes ATCC 700294): 0.39 µM (≈ 0.304 µg/mL) | MIC (B. subtilis ATCC 23857): 0.78 µM (≈ 0.607 µg/mL) | MIC (S. aureus ATCC 29213): 1.56 µM (≈ 1.21 µg/mL)

C[C@H]1C[C@H]2C(=O)O[C@@H](C)[C@H](NC(=O)[C@H](Cc3cc(F)cc(F)c3)NC(=O)Nc3ccc(C(F)(F)F)cc3)C(=O)N3CCC[C@H]3C(=O)N3CCCC[C@H]3C(=O)N[C@@H](C)C(=O)N2C1 [Compound 19, (S)-3-(3,5-Difluorophenyl)-2-(3-(4-(Trifluoromethyl)Phenyl)Ureido)-N-((2R,6S,8aS,14aS,20S,21S,23aS)-2,6,21-Trimethyl-5,8,14,19,23-Pentaoxooctadecahydro-1H,5H,14H,19H-Pyrido[2,1-I]Dipyrrolo[2,1-C:2′,1′-L][1]Oxa[4,7,10,13]Tetraazacyclohexadecin-20-Yl)Propanamide]
EC50 (Sa-ClpP [1]): 0.33 µM | IC50 (Sa-ClpP [2]): 5.7 ± 0.3 µM | MIC (S. pyogenes ATCC 700294): 0.4 µM (≈ 0.345 µg/mL) | MIC (B. subtilis ATCC 23857): < 0.1 µM | MIC (S. aureus ATCC 29213): 0.1 µM (≈ 0.0862 µg/mL)
